This data set can be described thus: Stability of Form 2 of Compound 1 under storage conditions (impurities by UPLC, solid form by XRPD). The data set is classed as physicochemical. The following applies: for Storage stability: up to 6 months. How it is done:
To measure stability of the Form 2 of Compound 1 under storage conditions, samples of Form 2 of Compound 1 were placed in double low-density polyethylene bags with desiccant between the bags and each was placed into a high-density polyethylene drum. One drum was stored at a temperature of 25° C. and 60% relative humidity (RH), and a second drum was stored at a temperature of 40° C. and 75% RH. Samples of the material were taken from both drums at 1 month, 3 months, and 6 months and the samples were analyzed for the presence of impurities. The amount of the Form 2 of Compound 1, and the amount of any impurities, in each sample was measured by ultra-performance liquid chromatography (UPLC) using the test conditions set and solvent gradients forth in Table 5 and Table 6. The samples were tested to determine the amount remaining of Form 2 at each time point, and the measurements were conducted by x-ray powder diffraction (XRPD) according to USP <941>.

[1] abbreviates: 25° C. and 60% RH, Initial (Time = zero).
[2] abbreviates: 40° C. and at 75% RH, Initial (Time = zero).

SMILES strings stand for the structures.

For the compound `Cc1cc(CN(C)C)ccc1-c1cnc(NCc2c(F)ccc3c2CCO3)n2cc(C#N)nc12` [Form 2 of Compound 1, 8-(4-((dimethylamino)methyl)-2-methylphenyl)-5-(((5-fluoro-2,3-dihydrobenzofuran-4-yl)methyl)amino)imidazo[1,2-c]pyrimidine-2-carbonitrile], the “Total impurities present (% area measured by UPLC)” value is, setting by setting: under setting [1], 1.4 % area; (25° C. and 60% RH, Time = 1 month) 1.4 % area; (25° C. and 60% RH, Time = 3 months) 1.4 % area; (25° C. and 60% RH, Time = 6 months) 1.4 % area; under setting [2], 1.4 % area; (40° C. and at 75% RH, Time = 1 month) 1.4 % area. In addition, the “Total impurities present (% area measured by UPLC)” value (40° C. and at 75% RH, Time = 3 months) was 1.4 % area; the “Total impurities present (% area measured by UPLC)” value (40° C. and at 75% RH, Time = 6 months) stood at 1.4 % area. Moreover, the XRPD result under setting [1] was “Crystalline”; the XRPD entry (25° C. and 60% RH, Time = 1 month, consistent with T = 0) is reported as “Crystalline”; the XRPD entry (25° C. and 60% RH, Time = 3 months, consistent with T = 0) is on record as “Crystalline”; the XRPD result (25° C. and 60% RH, Time = 6 months, consistent with T = 0) is given as “Crystalline”; the XRPD entry under setting [2] is “Crystalline”; the XRPD result (40° C. and at 75% RH, Time = 1 month, consistent with T = 0) is listed as “Crystalline”. In addition, the XRPD result is, setting by setting: (40° C. and at 75% RH, Time = 3 months, consistent with T = 0) “Crystalline”; (40° C. and at 75% RH, Time = 6 months, consistent with T = 0) “Crystalline”. Also, the Storage stability entry (stored at 25° C. and 60% RH) is “stable”; the Storage stability entry (stored at 40° C. and at 75% RH) is given as “stable”.

The values are drawn from US20260092068A1, “PHYSICAL FORMS OF AN INHIBITOR OF PRC2” (ORIC Pharmaceuticals, Inc., priority 2022, published 2026).
